US8703811B2, “Small molecule inhibitors of Plasmodium falciparum dihydroorotate dehydrogenase” (Genzyme Corporation, priority 2008, dated 2014)

Legend:
[1] = Normal Human Dermal Fibroblast Toxicity Screen; type: cell-based; settings: human, normal human dermal fibroblasts; four days exposure, Alamar Blue; read-out: Dermal Fibroblast LC50
Protocol: The Normal Human Dermal Fibroblast Toxicity Screen Protocol is designed to determine whether compound mixtures, breakouts or single compounds are toxic to normal human dermal fibroblasts. The screen involves plating the dermal fibroblasts and then exposing them to the compounds for four days, then cell viability is measured using Alamar Blue reagent.
Harvested Dermal Fibroblast cells were diluted in Growth Media to 0.25 to 0.3×10^5 cells/mL. […] NOTE: One plate, the T=0 plate required that 20-30 wells be seeded and all the other plates had 96 wells seeded. Plates were incubated in 37° C./5% CO2 incubator for 24 hours.
Alamar Blue solution (25 μL/well) was added to the T=0 plate and the plate was agitated. The plate in 37° C./5% CO2 incubator was incubated for 3 hours, agitated the and the fluorescence was measured. 10% Tween 20 stock (10 μL) was added into rows A-D in column 1 (positive control). DMSO (0.5 μL) was added into column 2 (negative control). Compounds were placed into designated wells for desired testing as follows:
Plates were mixed on the shaker, then incubated in 37° C./5% CO2 incubator for 96 hours.
Alamar Blue solution (25 μL/well) was added to the plates containing the compounds, and the plates were agitated. The plates were incubated in 37° C./5% CO2 incubator for 3 hours, agitated and then the fluorescence was measured.

[2] = system: P. falciparum D10; assay: Inhibition of in vitro P. falciparum culture, [3H]-hypoxanthine uptake, D10; type: cell-based; settings: Plasmodium falciparum, D10, Erythrocyte; [3H]-hypoxanthine uptake by parasite infected erythrocytes; read-out: D10 IC50
Protocol: (§1) P. falciparum strains D10, 3D7, HB3, and Dd2 were obtained from the Malaria Research and Reference Reagent Resource Center (Manassas, Va.). The parasite strains were maintained in vitro by method of Trager and Jensen. The inhibition of P. falciparum growth in the presence of drug was assessed by the relative reduction of [^3H]-hypoxanthine uptake as previously described. Inhibition data were fitted to Equation 1 using non-linear regression analysis except that the relative velocity of parasite growth was substituted for the rate of product formation.

[3] = molecular target: T1, pfDHODH (Plasmodium falciparum (isolate 3D7), UniProt Q08210); assay: pfDHODH activity with FeCy as electron acceptor; settings: read-out: % Inhibition of Product Formation Rate with 50 μM Inhibitor, FeCy
Protocol: Inhibitors of DHODH, as classified by the chromogen reduction assay, were also evaluated for activity using FeCy as an electron acceptor. A final concentration of 5-50 nM DHODH, 200 μM L-DHO and 100 μM FeCy in Buffer C was used in this assay. Both the reduction of FeCy and the formation of orotate was monitored at 420 nm (ε420=1 mM^−1 cm^−1) and 290 nm (ε280=2 mM^−1 cm^−1), respectively, noting that two molecules of FeCy are reduced for one molecule of L-DHO. As with the previous assays, the reaction was performed at 25° C. and initiated with the addition of enzyme.

[4] = system: P. falciparum 3D7; assay: Inhibition of in vitro P. falciparum culture, [3H]-hypoxanthine uptake, 3D7; type: cell-based; settings: Plasmodium falciparum, 3D7, Erythrocyte; [3H]-hypoxanthine uptake by parasite infected erythrocytes; read-out: 3D7 IC50
In short: (§2)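 Parasite growth inhibition measured as relative reduction of [3H]-hypoxanthine uptake in in vitro cultures. Values from non-linear regression fit, using relative growth velocity in place of product-formation rate.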

[5] = molecular target: pbDHODH (Plasmodium berghei, UniProt A0A509AEH5); assay: DCIP assay, pbDHODH; type: biochemical, P. berghei; settings: 200 μM L-DHO, 18 μM CoQD, 100 μM DCIP, 20 nM enzyme
Excerpt: (§3) Type 2 DHODH activity was monitored with either the direct assay measuring the formation of orotate or via a chromogen reduction assay using DCIP. Although the extinction coefficient and absorption wavelength are preferable for the chromogen reduction assay, the inorganic electron acceptor DCIP can be utilized by DHODH as the final electron acceptor in lieu of CoQn when the endogenous substrate is at a low concentration. As such, the direct assay was used to measure the binding affinity of pfDHODH to CoQD and L-DHO. The enzymatic reaction was performed by varying the L-DHO concentration (1-400 μM) or CoQD concentration (1-200 μM) while keeping the other substrate constant and in excess. The formation of orotate was measured continuously at 296 nm (ε296=4.3 mM^−1 cm^−1). Inhibition of DHODH by small molecules was evaluated using the chromogen based assay with a final substrate concentration of 200 μM L-DHO, 18 μM CoQD, and 100 μM DCIP, unless otherwise noted. The reduction of DCIP was monitored at 600 nm (ε600=18.8 mM^−1 cm^−1).
(§4) Substrate specificity and enzyme inhibition data was analyzed with GraphPad Prism Version 4 for Windows (GraphPad Software). Kinetic constants were calculated by non-linear regression fitting of the data to the Michaelis-Menten equation [36]. IC50 values were determined by non-linear regression fitting of the data to Equation 1: […]

[6] = system: P. falciparum HB3; assay: Inhibition of in vitro P. falciparum culture, [3H]-hypoxanthine uptake, HB3; type: cell-based; settings: Plasmodium falciparum, HB3, Erythrocyte; [3H]-hypoxanthine uptake by parasite infected erythrocytes; read-out: HB3 IC50
Protocol: as §1

[7] = system: P. falciparum Dd2; assay: Inhibition of in vitro P. falciparum culture, [3H]-hypoxanthine uptake, Dd2; type: cell-based; settings: Plasmodium falciparum, DD2, Erythrocyte, [3H]-hypoxanthine uptake by parasite infected erythrocytes; read-out: Dd2 IC50
In short: as §2

[8] = molecular target: hsDHODH (Homo sapiens (Human), UniProt Q02127); assay: DCIP assay, hsDHODH; type: biochemical; settings: DCIP assay; 200 μM L-DHO, 18 μM CoQD, 100 μM DCIP, 20 nM enzyme; read-out: hsDHODH IC50
Excerpt: as §3, §4

[9] = molecular target: scDHODH (Saccharomyces cerevisiae (strain ATCC 204508 / S288c) (Baker's yeast), UniProt P28272); assay: DCIP assay with fumarate, scDHODH; type: biochemical; settings: 115 μM fumarate in lieu of CoQD
[10] = Renal Proximal Tubule Epithelial Cell Toxicity Screen; type: cell-based
Protocol: The Renal Proximal Tubule Epithelial Cell Toxicity Screen is designed to determine whether compound mixtures, breakouts or single compounds are toxic to normal renal epithelial cells. […] Basically, the screen consists of plating renal epithelial cells, exposing them to the desired compound(s) for 4 days and measuring cell viability using the Alamar Blue reagent.
Harvested Kidney Epithelial cells were diluted in REGM to 1.5×10^4 cells/mL. […] NOTE: One plate, the T=0 plate required that 20-30 wells be seeded, and all the other plates had 96 wells seeded. Plates were incubated in 37° C./5% CO2 incubator for 24 hours.
Alamar Blue solution (25 μL/well) was added to the T=0 plate and mixed. The plate was incubated in 37° C./5% CO2 incubator for 4 hours, mixed and then the fluorescence was measured. 10% Tween 20 stock (10 μL) was added into rows A-D in column 1 (positive control). DMSO (0.5 μL) was added into column 2 (negative control). Compounds were placed into designated wells for desired testing as follows:
Plates were mixed on the shaker, and then incubated in 37° C./5% CO2 incubator for 96 hours. Day 6:
Alamar Blue solution (25 μL/well) was added to the plates containing the compounds and mixed. Plates were incubated in 37° C./5% CO2 incubator for 4 hours, mixed and the fluorescence was measured.

[11] = molecular target: T1, pfDHODH; assay: DHODH chromogen reduction (DCIP) assay, pfDHODH; type: biochemical, P. falciparum; settings: 200 μM L-DHO
[12] = molecular target: pvDHODH (Plasmodium vivax, UniProt A5K1N1); assay: DCIP assay, pvDHODH; type: biochemical, P. vivax; settings: 200 μM L-DHO, 18 μM CoQD, 100 μM DCIP, 20 nM enzyme
Excerpt: as §3, §4

[13] = system: P. falciparum D10-scDHODH; assay: Inhibition of transgenic D10-scDHODH parasites, [3H]-hypoxanthine uptake; type: cell-based
Protocol: as §1
Transgenic parasites expressing scDHODH were generated as described by Painter et al. except that full length scDHODH was cloned directly into the pGem3Z vector without a GFP tag. The resultant plasmid was transfected into ring stages of P. falciparum D10 by electroporation and maintained in culture using standard methods under the selection of WR99210.

T1 sequence (Q08210 159-565 limits assumed): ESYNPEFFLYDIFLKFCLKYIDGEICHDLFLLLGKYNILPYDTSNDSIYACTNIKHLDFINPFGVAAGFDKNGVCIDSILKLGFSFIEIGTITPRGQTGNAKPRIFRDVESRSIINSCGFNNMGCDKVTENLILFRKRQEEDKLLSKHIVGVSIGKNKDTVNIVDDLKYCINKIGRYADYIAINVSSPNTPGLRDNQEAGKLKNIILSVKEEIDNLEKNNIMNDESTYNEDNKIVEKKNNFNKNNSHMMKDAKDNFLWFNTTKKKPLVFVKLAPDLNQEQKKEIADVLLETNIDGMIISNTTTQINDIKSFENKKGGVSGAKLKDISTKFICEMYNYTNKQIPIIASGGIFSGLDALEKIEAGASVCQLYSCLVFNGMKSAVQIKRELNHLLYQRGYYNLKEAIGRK
Sequence of pvDHODH (A5K1N1 1-572): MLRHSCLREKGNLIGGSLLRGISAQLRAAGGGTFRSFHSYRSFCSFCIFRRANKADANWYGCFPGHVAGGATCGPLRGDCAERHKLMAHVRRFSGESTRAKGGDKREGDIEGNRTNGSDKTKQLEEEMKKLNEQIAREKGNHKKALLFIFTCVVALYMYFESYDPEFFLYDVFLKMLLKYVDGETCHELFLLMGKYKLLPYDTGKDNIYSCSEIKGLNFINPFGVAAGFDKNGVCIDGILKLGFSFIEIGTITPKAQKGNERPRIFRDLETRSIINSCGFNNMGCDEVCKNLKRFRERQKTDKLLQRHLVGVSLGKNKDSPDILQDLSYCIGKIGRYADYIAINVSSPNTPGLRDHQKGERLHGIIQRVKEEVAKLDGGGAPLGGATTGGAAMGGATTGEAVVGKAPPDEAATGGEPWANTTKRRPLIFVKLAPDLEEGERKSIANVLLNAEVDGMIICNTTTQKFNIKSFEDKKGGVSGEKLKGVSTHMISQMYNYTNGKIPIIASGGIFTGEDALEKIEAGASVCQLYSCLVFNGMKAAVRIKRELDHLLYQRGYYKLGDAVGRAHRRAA
Sequence of pbDHODH (A0A509AEH5 1-517): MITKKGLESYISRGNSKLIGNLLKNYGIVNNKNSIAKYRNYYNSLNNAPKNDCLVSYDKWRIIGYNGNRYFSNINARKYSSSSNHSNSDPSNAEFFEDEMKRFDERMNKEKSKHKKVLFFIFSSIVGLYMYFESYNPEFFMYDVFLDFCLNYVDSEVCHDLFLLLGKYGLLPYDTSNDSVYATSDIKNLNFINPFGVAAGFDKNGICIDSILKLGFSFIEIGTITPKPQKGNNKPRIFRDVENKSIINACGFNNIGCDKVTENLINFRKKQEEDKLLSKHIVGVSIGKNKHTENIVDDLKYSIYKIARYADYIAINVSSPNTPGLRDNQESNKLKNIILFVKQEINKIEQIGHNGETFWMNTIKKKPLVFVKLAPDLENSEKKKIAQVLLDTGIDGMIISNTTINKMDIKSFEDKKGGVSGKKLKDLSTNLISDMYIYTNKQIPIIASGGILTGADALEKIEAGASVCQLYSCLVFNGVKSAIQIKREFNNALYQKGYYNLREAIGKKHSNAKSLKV
Sequence of scDHODH (P28272 whole entry): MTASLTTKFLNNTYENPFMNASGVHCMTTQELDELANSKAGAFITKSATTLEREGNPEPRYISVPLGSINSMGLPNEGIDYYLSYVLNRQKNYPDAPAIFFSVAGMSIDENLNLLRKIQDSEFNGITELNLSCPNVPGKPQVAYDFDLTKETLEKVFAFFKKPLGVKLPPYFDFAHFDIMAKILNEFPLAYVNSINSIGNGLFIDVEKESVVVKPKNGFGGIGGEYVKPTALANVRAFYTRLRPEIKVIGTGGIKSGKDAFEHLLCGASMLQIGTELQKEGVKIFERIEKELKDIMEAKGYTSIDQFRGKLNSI
Sequence of hsDHODH (Q02127 29-395 limits assumed): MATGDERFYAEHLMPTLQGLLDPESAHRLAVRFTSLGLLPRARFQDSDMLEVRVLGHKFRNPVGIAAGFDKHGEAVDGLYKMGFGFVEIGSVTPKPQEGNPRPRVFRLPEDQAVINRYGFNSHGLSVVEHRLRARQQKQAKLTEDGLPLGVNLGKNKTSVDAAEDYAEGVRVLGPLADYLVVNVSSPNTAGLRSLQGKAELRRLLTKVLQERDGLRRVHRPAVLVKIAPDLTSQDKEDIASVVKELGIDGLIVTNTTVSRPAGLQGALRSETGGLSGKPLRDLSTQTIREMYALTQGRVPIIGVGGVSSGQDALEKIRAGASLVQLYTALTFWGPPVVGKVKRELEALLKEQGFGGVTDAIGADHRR

## O=C(NC1CC1)c1ccc(N2CCSc3ccccc32)s1 [Compound 5, 5(2H-benzo[b][1,4]thiazin-4(3H)-yl)-N-cyclopropylthiophene-2-carboxamide]
[1]
  CC50 at 96 h: > 62000 nM
[2]
  IC50: 950 nM
[3]
  inhibition at 50 µM: 23%
[4]
  IC50: 890 nM
[5]
  IC50: 380 ± 60 nM
[6]
  IC50: 910 nM
[7]
  IC50: 620 nM
[8]
  IC50: 7900 ± 400 nM
[9]
  IC50: > 10000 nM
[10]
  CC50 at 96 h: > 62000 nM
[11]; 50 μM inhibitor, 100 μM CoQD, 60 μM DCIP, read-out: % Inhibition of Product Formation Rate with 50 μM Inhibitor, CoQD
  inhibition at 50 µM: 97%
[11]; DCIP assay, 18 μM CoQD, 100 μM DCIP, 20 nM enzyme, read-out: pfDHODH IC50
  IC50: 250 ± 30 nM
[12]
  IC50: 280 ± 10 nM
[13]; Plasmodium falciparum, D10, read-out: D10-scDHODH IC50
  IC50: > 10000 nM
[13]; dose-effect curves, FIG. 5
  efficacy against D10-scDHODH strain compared to D10 parent strain: significantly reduced
